One block for each compound: values may come before it. Calls of active or inactive are those of the source. The calls are words filed in the database; no cut-off is given here.
Tests used:
[1] = molecular target: Vascular endothelial growth factor receptor 2 (Homo sapiens, UniProt P35968)
[2] = molecular target: T1, Receptor-type tyrosine-protein kinase FLT3 (Homo sapiens, UniProt P36888); experiment: Inhibition of FLT3
T1 sequence (P36888 whole entry): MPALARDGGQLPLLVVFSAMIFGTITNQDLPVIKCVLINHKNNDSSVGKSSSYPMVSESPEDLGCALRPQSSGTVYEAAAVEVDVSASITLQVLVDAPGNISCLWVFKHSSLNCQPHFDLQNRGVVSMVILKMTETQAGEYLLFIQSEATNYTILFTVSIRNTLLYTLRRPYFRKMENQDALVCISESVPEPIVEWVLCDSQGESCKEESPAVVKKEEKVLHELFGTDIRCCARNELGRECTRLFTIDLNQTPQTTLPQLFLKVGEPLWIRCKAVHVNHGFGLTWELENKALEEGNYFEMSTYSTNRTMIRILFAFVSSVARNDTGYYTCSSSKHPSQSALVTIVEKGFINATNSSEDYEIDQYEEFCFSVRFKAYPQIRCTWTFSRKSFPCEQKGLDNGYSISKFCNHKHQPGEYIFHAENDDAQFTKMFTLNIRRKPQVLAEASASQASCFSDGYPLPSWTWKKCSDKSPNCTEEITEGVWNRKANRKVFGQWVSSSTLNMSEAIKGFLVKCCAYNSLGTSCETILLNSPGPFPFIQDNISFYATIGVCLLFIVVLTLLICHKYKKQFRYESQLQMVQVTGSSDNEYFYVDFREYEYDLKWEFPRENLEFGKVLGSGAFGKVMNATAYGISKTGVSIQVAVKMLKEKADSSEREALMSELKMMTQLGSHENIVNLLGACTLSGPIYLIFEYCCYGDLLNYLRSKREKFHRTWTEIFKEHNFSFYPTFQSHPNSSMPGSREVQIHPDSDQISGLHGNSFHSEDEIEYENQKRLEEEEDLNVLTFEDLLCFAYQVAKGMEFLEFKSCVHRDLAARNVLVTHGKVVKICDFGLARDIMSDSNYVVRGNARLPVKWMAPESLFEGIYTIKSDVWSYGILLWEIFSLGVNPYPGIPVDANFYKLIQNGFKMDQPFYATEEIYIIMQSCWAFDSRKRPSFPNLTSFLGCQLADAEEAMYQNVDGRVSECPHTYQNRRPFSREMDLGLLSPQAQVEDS

[3] = Half life in rat at 10 mg/kg, po; type: ADME, organism-based; design: dose 10 mg/kg, route oral; details: in vivo
HCT-116 [4] = experiment: Antitumor activity against human HCT116 cells xenografted po dosed mouse model measured after 10 to 14 days; type: functional, organism-based
Mus musculus [5] = experiment: Toxicity in mouse assessed as body weight at 100 to 200 mg/kg, po after 24 days; type: organism-based; design: dose 100-200 mg/kg, route oral; details: in vivo, 576 h
A-375 [6] = experiment: Antiproliferative activity against human A375 cells at 100 uM; type: functional, cell-based
[7] = Clearance in rat at 2 mg/kg, iv; type: ADME, organism-based; design: dose 2 mg/kg, route intravenous; details: in vivo
[8] = Cmax in BALB/c mouse at 2 mg/kg, iv; type: ADME, organism-based; design: dose 2 mg/kg, route intravenous; details: in vivo
Rattus norvegicus [9] = experiment: AUC in rat at 2 mg/kg, iv; type: ADME, organism-based, Plasma; design: dose 2 mg/kg, route intravenous; details: in vivo
[10] = Volume of distribution at steady state in BALB/c mouse at 2 mg/kg, iv; type: ADME, organism-based; design: dose 2 mg/kg, route intravenous; details: in vivo, read-out: Vdss
A-431 [11] = experiment: Antitumor activity against human A431 cells xenografted mouse model measured at 100 to 200 mg/kg, po after 10 to 14 days; type: functional
HCT-116 [12] = experiment: Antitumor activity against human HCT116 cells xenografted mouse model measured at 100 to 200 mg/kg, po after 10 to 14 days; type: functional
[13] = Half life in rat at 2 mg/kg, iv; type: ADME, organism-based; design: dose 2 mg/kg, route intravenous; details: in vivo
A-375 [14] = experiment: Antitumor activity against human A375 cells xenografted mouse model assessed as growth inhibition at 100 mg/kg, po; type: functional
[15] = Half life in BALB/c mouse at 10 mg/kg, po; type: ADME, organism-based; design: dose 10 mg/kg, route oral; details: in vivo
[16] = Cmax in BALB/c mouse at 10 mg/kg, po; type: ADME, organism-based; design: dose 10 mg/kg, route oral; details: in vivo
[17] = molecular target: Vascular endothelial growth factor receptor 1 (Homo sapiens, UniProt P17948); experiment: Inhibition of FLT1
[18] = Volume of distribution at steady state in rat at 2 mg/kg, iv; type: ADME, organism-based; design: dose 2 mg/kg, route intravenous; details: in vivo, read-out: Vdss
Mus musculus [19] = experiment: Oral bioavailability in BALB/c mouse at 10 mg/kg; type: ADME, organism-based; details: in vivo
[20] = Clearance in BALB/c mouse at 2 mg/kg, iv; type: ADME, organism-based; design: dose 2 mg/kg, route intravenous; details: in vivo
[21] = Half life in BALB/c mouse at 2 mg/kg, iv; type: ADME, organism-based; design: dose 2 mg/kg, route intravenous; details: in vivo
[22] = Cmax in rat at 2 mg/kg, iv; type: ADME, organism-based; design: dose 2 mg/kg, route intravenous; details: in vivo
Mus musculus [23] = experiment: AUC in BALB/c mouse at 2 mg/kg, iv; type: ADME, organism-based, Plasma; design: dose 2 mg/kg, route intravenous; details: in vivo
Rattus norvegicus [24] = experiment: Oral bioavailability in rat at 10 mg/kg; type: ADME, organism-based; details: in vivo
Mus musculus [25] = experiment: AUC in BALB/c mouse at 10 mg/kg, po; type: ADME, organism-based, Plasma; design: dose 10 mg/kg, route oral; details: in vivo
A-431 [26] = experiment: Antitumor activity against human A431 cells xenografted po dosed mouse model measured after 10 to 14 days; type: functional, organism-based
HCT-116 [27] = experiment: Antiproliferative activity against human HCT116 cells at 100 uM; type: functional, cell-based
[28] = molecular target: Mast/stem cell growth factor receptor Kit (Homo sapiens, UniProt P10721); experiment: Inhibition of KIT
[29] = Cmax in rat at 10 mg/kg, po; type: ADME, organism-based; design: dose 10 mg/kg, route oral; details: in vivo

Vascular endothelial growth factor receptor 2, sequence (P35968 whole entry): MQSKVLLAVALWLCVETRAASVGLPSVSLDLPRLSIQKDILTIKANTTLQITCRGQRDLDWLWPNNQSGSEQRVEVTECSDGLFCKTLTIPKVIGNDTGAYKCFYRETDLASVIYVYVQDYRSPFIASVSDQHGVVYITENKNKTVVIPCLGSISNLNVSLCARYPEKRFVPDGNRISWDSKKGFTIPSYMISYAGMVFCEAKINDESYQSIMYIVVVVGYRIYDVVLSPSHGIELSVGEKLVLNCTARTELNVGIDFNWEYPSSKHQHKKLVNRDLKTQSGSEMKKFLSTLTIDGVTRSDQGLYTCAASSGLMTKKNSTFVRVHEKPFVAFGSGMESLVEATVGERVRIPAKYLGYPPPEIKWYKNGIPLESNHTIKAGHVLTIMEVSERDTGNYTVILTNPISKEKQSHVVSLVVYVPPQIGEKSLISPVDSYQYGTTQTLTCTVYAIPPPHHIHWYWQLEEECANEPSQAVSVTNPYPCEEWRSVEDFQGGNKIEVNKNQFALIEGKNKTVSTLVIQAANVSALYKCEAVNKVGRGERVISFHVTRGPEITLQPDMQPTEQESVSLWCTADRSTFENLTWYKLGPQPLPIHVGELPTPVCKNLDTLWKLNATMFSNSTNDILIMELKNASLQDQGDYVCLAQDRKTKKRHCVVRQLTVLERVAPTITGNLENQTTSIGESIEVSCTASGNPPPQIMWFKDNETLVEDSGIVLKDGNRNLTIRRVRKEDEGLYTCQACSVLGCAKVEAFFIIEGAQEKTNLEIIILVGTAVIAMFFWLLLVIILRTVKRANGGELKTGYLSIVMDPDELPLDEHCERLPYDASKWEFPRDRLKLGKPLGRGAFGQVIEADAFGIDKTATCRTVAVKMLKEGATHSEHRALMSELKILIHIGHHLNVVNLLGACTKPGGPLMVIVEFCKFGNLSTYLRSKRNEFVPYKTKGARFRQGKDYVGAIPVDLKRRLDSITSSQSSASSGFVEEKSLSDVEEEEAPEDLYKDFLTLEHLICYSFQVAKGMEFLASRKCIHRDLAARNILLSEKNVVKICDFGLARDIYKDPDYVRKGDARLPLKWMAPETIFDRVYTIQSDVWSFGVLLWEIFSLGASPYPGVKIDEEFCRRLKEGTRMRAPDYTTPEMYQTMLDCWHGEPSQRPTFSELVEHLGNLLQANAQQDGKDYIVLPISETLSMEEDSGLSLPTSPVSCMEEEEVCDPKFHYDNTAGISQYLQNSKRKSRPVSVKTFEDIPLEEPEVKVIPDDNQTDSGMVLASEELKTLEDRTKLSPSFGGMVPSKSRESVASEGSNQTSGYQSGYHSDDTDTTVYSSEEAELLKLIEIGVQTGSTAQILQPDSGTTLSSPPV
Mast/stem cell growth factor receptor Kit, sequence (P10721 whole entry): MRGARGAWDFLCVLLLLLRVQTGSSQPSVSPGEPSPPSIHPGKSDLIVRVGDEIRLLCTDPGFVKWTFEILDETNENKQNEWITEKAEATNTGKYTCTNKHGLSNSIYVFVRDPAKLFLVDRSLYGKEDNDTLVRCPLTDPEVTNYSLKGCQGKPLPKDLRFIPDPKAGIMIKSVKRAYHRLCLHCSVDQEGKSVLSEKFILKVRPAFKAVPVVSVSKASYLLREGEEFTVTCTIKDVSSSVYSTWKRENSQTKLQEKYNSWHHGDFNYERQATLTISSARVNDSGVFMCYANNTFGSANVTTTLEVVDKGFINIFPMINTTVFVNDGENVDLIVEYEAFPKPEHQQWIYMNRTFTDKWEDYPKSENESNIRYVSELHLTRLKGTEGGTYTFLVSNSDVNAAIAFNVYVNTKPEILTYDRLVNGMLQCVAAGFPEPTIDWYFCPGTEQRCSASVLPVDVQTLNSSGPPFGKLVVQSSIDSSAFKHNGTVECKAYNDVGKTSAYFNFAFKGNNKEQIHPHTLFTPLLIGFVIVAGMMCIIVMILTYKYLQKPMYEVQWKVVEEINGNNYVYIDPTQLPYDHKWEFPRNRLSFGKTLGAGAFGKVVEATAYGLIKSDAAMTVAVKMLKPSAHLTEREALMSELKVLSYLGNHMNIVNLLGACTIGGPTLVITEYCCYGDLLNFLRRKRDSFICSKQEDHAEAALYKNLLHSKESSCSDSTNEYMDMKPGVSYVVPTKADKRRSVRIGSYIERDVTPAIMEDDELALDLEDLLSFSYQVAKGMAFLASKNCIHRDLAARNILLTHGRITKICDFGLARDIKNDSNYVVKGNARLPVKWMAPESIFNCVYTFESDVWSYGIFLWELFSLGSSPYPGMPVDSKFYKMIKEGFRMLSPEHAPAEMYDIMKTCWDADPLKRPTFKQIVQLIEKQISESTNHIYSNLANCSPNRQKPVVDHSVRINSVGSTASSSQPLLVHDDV
Vascular endothelial growth factor receptor 1, sequence (P17948 whole entry): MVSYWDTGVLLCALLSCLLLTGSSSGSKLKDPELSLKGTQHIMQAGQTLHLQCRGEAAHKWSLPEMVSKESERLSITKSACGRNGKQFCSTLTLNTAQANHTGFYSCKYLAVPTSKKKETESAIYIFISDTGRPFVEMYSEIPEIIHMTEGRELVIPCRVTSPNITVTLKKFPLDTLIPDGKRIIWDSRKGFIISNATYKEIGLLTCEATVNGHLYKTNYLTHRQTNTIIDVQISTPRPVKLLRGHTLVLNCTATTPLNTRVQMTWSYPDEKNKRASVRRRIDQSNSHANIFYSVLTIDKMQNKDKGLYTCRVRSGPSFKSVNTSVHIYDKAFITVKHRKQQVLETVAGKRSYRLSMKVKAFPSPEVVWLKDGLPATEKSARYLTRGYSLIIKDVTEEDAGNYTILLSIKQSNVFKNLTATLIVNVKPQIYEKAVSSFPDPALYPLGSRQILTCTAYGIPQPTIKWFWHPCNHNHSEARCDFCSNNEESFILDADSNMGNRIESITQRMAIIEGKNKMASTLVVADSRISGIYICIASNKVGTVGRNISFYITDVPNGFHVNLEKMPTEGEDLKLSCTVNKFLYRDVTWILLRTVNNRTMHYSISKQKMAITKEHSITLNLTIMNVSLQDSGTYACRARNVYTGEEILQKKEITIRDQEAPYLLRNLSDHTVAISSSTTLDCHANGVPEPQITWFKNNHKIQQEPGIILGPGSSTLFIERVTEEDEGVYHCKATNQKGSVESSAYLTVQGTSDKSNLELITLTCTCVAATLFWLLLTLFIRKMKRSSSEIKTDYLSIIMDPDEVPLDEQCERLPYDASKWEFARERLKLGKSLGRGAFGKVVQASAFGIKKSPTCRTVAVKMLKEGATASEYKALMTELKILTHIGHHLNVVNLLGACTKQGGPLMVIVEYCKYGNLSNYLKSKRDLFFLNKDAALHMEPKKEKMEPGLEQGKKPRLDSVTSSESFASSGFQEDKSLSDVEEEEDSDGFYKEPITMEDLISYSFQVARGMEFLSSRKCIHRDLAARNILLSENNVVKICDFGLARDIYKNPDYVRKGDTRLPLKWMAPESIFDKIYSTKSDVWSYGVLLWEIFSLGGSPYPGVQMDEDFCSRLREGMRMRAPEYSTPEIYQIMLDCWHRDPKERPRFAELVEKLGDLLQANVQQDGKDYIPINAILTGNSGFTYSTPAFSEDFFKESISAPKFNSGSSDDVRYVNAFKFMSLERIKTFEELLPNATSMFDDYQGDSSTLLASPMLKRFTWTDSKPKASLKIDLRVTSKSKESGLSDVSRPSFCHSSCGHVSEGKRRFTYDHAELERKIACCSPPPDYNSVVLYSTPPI

Compound: CO/N=C/c1c(N)ncnc1Oc1ccc(NC(=O)NC(C)C)c(Cl)c1
- IC50 [1]: 73 nM

Compound: CO/N=C/c1c(N)ncnc1Oc1ccc(NC(=O)Nc2ccccc2C)c(Cl)c1
- IC50 [1]: 7.9 nM

Compound: CO/N=C/c1c(N)ncnc1Oc1ccc(NC(=O)NC2CCCCC2)c(Cl)c1
- IC50 [1]: 6.5 nM

Compound: CNC(=O)Nc1ccc(Oc2ncnc(N)c2/C=N/OC)cc1Cl
- IC50 [1]: 25 nM

Compound: CNC(=O)Nc1ccc(Oc2ncnc(N)c2/C=N/OC)c(F)c1
- IC50 [1]: 142 nM

Compound: CCNC(=O)Nc1ccc(Oc2ncnc(N)c2/C=N/OC)c(C)c1
- IC50 [1]: 180 nM

Compound: CO/N=C/c1c(N)ncnc1Oc1ccc(NC(C)=O)cc1Cl
- IC50 [1]: 2210 nM

Compound: CCNC(=O)Nc1ccc(Oc2ncnc(N)c2/C=N/OC)cc1Cl
- IC50 [2]: 4800 nM
- half-life [3]: 10 h
- Activity (HCT-116 [4]): Dose-dependent effect
- Activity (Mus musculus [5]): Non-toxic
- Activity (A-375 [6]): inactive
- clearance [7]: 7.4 mL/min/kg
- Cmax [8]: 2990 ng/mL
- AUC (Rattus norvegicus [9]): 4799 ng·h/mL
- Vd [10]: 0.7 L/kg
- inhibition (INH) (A-431 [11]): 90%
- inhibition (INH) (HCT-116 [12]): 90%
- half-life [13]: 0.7 h
- inhibition in vivo at 100 mg/kg (A-375 [14]): 90%
- half-life [15]: 2.1 h
- Cmax [16]: 2790 ng/mL
- IC50 [17]: 4420 nM
- Vd [18]: 0.4 L/kg
- F (Mus musculus [19]): 16%
- clearance [20]: 5.6 mL/min/kg
- half-life [21]: 2.8 h
- Cmax [22]: 5400 ng/mL
- AUC (Mus musculus [23]): 6114 ng·h/mL
- F (Rattus norvegicus [24]): 30%
- AUC (Mus musculus [25]): 12305 ng·h/mL
- Activity (A-431 [26]): Dose-dependent effect
- Activity (HCT-116 [27]): inactive
- IC50 [28]: 513 nM
- Cmax [29]: 1030 ng/mL

Compound: CO/N=C/c1c(N)ncnc1Oc1ccc(NC(=O)NCCCO)c(Cl)c1
- IC50 [1]: 400 nM

Compound: CO/N=C/c1c(N)ncnc1Oc1ccc(NC(=O)Nc2nc(C)c(C)s2)c(Cl)c1
- IC50 [1]: 2 nM

Compound: CO/N=C/c1c(N)ncnc1Oc1ccc(NC(=O)Nc2ccccc2Cl)c(Cl)c1
- IC50 [1]: 2.6 nM

Compound: CO/N=C/c1c(N)ncnc1Oc1ccc(NC(=O)NCCO)c(Cl)c1
- IC50 [1]: 168 nM

Compound: CCNC(=O)Oc1ccc(Oc2ncnc(N)c2/C=N/OC)cc1
- IC50 [1]: > 100000 nM

Compound: CO/N=C/c1c(N)ncnc1Oc1ccc(NC(=O)Nc2nccs2)c(Cl)c1
- IC50 [1]: 3.4 nM

Now from value to compound:

- IC50 [1]: 3.3 nM
Compound: CO/N=C/c1c(N)ncnc1Oc1ccc(NC(=O)Nc2ccccc2F)c(Cl)c1

- IC50 [1]: 142 nM
Compound: CCNC(=O)Nc1ccc(Oc2ncnc(N)c2/C=N/OC)cc1

- IC50 [1]: 2 nM
Compound: CO/N=C/c1c(N)ncnc1Oc1ccc(NC(=O)Nc2cc(C)on2)c(Cl)c1

- IC50 [1]: 29 nM
Compound: CO/N=C/c1c(N)ncnc1Oc1ccc(NC(=O)NC2CC2)c(Cl)c1

- IC50 [1]: 3 nM
Compound: CO/N=C/c1c(N)ncnc1Oc1ccc(NC(=O)Nc2ccc(F)cc2F)c(Cl)c1

- IC50 [1]: 1.7 nM
Compound: CO/N=C/c1c(N)ncnc1Oc1ccc(NC(=O)Nc2cccc(F)c2)c(Cl)c1

- IC50 [1]: 152 nM
Compound: CO/N=C/c1c(N)ncnc1Oc1ccc(NC(=O)OC)cc1Cl

- IC50 [1]: 2.5 nM
Compound: CO/N=C/c1c(N)ncnc1Oc1ccc(NC(=O)Nc2ccccc2OC)c(Cl)c1

- IC50 [1]: 3 nM
Compound: CO/N=C/c1c(N)ncnc1Oc1ccc(NC(=O)Nc2ccccc2)c(Cl)c1

- IC50 [1]: 19700 nM
Compound: CNC(=O)Cc1ccc(Oc2ncnc(N)c2/C=N/OC)cc1

- IC50 [1]: 285 nM
Compound: CO/N=C/c1c(N)ncnc1Oc1ccc(NC(=O)NCCN(C)C)c(Cl)c1

- IC50 [1]: 34 nM
Compound: CO/N=C/c1c(N)ncnc1Oc1ccc(NC(=O)Nc2ccccn2)c(Cl)c1

- IC50 [1]: 28 nM
Compound: CCCNC(=O)Nc1ccc(Oc2ncnc(N)c2/C=N/OC)cc1Cl

- IC50 [1]: 10 nM
Compound: CO/N=C/c1c(N)ncnc1Oc1ccc(NC(=O)Nc2cccnc2)c(Cl)c1

- IC50 [1]: 10.3 nM
Compound: CO/N=C/c1c(N)ncnc1Oc1ccc(NC(=O)NCc2ccc(F)cc2F)c(Cl)c1

- IC50 [1]: 2.8 nM
Compound: CO/N=C/c1c(N)ncnc1Oc1ccc(NC(=O)Nc2ccc(F)cc2)c(Cl)c1

- IC50 [1]: > 100000 nM
Compound: CNC(=O)Nc1ccc(Oc2ncnc(N)c2/C=N/OC)c(Br)c1

- IC50 [1]: 11 nM
Compound: CO/N=C/c1c(N)ncnc1Oc1ccc(NC(=O)Nc2ccncc2)c(Cl)c1

- IC50 [1]: 759 nM
Compound: CO/N=C/c1c(N)ncnc1Oc1ccc(NC(=O)NCCCCN2CCCC2)c(Cl)c1

Source: ChEMBL document CHEMBL1681715, “4-aminopyrimidine-5-carbaldehyde oximes as potent VEGFR-2 inhibitors. Part II” (Bioorg Med Chem Lett, 2011)
